Experimental data taken from ChEMBL document CHEMBL3885881, “DrugMatrix”.

Organism: Rattus norvegicus
Experiment: DrugMatrix - Regimen: Daily Repeat
Format: toxicity, organism-based, Sprague-Dawley
Set-up: regimen Daily Repeat, gender Male, age 6-8 weeks
Conditions: in vivo, po, route oral GAVAGE, vehicle 100 % SALINE; for ABSOLUTE BASOPHIL / ABSOLUTE EOSINOPHIL / ABSOLUTE LYMPHOCYTE / ABSOLUTE MONOCYTE / ABSOLUTE SEGMENTED NEUTROPHIL / BASOPHIL / EOSINOPHIL / ERYTHROCYTE COUNT / HEMATOCRIT / HEMOGLOBIN / LEUKOCYTE COUNT / LYMPHOCYTE / MEAN CORPUSCULAR HEMOGLOBIN / MEAN CORPUSCULAR HEMOGLOBIN CONCENTRATION / MEAN CORPUSCULAR VOLUME / MONOCYTE / NEUTROPHIL / NUCLEATED RED BLOOD CELLS / PLATELET COUNT: tissue Blood; for ALANINE AMINOTRANSFERASE / ALBUMIN / ALKALINE PHOSPHATASE / ASPARTATE AMINOTRANSFERASE / BLOOD UREA NITROGEN / CARBON DIOXIDE / CHLORIDE / CHOLESTEROL / CREATINE PHOSPHOKINASE / CREATININE / GLUCOSE / LACTATE DEHYDROGENASE / LIPASE / PHOSPHORUS / POTASSIUM / SODIUM / TOTAL BILIRUBIN / TOTAL PROTEIN / URIC ACID: tissue Plasma
[1] = 59 mg/kg, 120 h, dose level Low, time 5 day
[2] = 400 mg/kg, 72 h, dose level High, time 3 day
[3] = 400 mg/kg, 120 h, dose level High, time 5 day

## NC(=O)NO [HYDROXYUREA]
[1]
  ABSOLUTE BASOPHIL: 0 CELLS/uL
  ABSOLUTE EOSINOPHIL: 40 CELLS/uL
  ABSOLUTE LYMPHOCYTE: 7014.67 CELLS/uL
  ABSOLUTE MONOCYTE: 87.67 CELLS/uL
  ABSOLUTE SEGMENTED NEUTROPHIL: 557.67 CELLS/uL
  BASOPHIL: 0%
  EOSINOPHIL: 0.67%
  ERYTHROCYTE COUNT: 5.35 x10E6/uL
  HEMATOCRIT: 34.53%
  HEMOGLOBIN: 13.4 G/DL
  LEUKOCYTE COUNT: 7.7 x10E3/uL
  LYMPHOCYTE: 90.67%
  MEAN CORPUSCULAR HEMOGLOBIN: 25.1 pg
  MEAN CORPUSCULAR HEMOGLOBIN CONCENTRATION: 38.83 G/DL
  MEAN CORPUSCULAR VOLUME: 64.63 fL
  MONOCYTE: 1%
  NEUTROPHIL: 7.67%
  NUCLEATED RED BLOOD CELLS: 0 /100WBC
  PLATELET COUNT: 1286 x10E3/uL
  ALANINE AMINOTRANSFERASE: 54 u/L
  ALBUMIN: 4.1 G/DL
  ALKALINE PHOSPHATASE: 381.33 u/L
  ASPARTATE AMINOTRANSFERASE: 80.33 u/L
  BLOOD UREA NITROGEN: 12.33 mg/dL
  CARBON DIOXIDE: 29.67 mmol/L
  CHLORIDE: 98 MEQ/L
  CHOLESTEROL: 64 mg/dL
  CREATINE PHOSPHOKINASE: 314.67 u/L
  CREATININE: 0.22 mg/dL
  GLUCOSE: 169.33 mg/dL
  LACTATE DEHYDROGENASE: 90.33 u/L
  LIPASE: 10.67 u/L
  PHOSPHORUS: 10.9 mg/dL
  POTASSIUM: 5.6 MEQ/L
  SODIUM: 143.13 MEQ/L
  TOTAL BILIRUBIN: 0.17 mg/dL
  TOTAL PROTEIN: 6.1 G/DL
  URIC ACID: 0.8 mg/dL
[2]
  ABSOLUTE BASOPHIL: 0 CELLS/uL
  ABSOLUTE EOSINOPHIL: 0 CELLS/uL
  ABSOLUTE LYMPHOCYTE: 4351 CELLS/uL
  ABSOLUTE MONOCYTE: 16 CELLS/uL
  ABSOLUTE SEGMENTED NEUTROPHIL: 133 CELLS/uL
  BASOPHIL: 0%
  EOSINOPHIL: 0%
  ERYTHROCYTE COUNT: 4.56 x10E6/uL
  HEMATOCRIT: 29.63%
  HEMOGLOBIN: 11.37 G/DL
  LEUKOCYTE COUNT: 4.5 x10E3/uL
  LYMPHOCYTE: 96.67%
  MEAN CORPUSCULAR HEMOGLOBIN: 24.93 pg
  MEAN CORPUSCULAR HEMOGLOBIN CONCENTRATION: 38.43 G/DL
  MEAN CORPUSCULAR VOLUME: 64.87 fL
  MONOCYTE: 0.33%
  NEUTROPHIL: 3%
  NUCLEATED RED BLOOD CELLS: 0 /100WBC
  PLATELET COUNT: 1033 x10E3/uL
  ALANINE AMINOTRANSFERASE: 39.67 u/L
  ALBUMIN: 3.97 G/DL
  ALKALINE PHOSPHATASE: 323.33 u/L
  ASPARTATE AMINOTRANSFERASE: 76 u/L
  BLOOD UREA NITROGEN: 10 mg/dL
  CARBON DIOXIDE: 30.33 mmol/L
  CHLORIDE: 100.67 MEQ/L
  CHOLESTEROL: 77.33 mg/dL
  CREATINE PHOSPHOKINASE: 221.33 u/L
  CREATININE: 0.2 mg/dL
  GLUCOSE: 154.67 mg/dL
  LACTATE DEHYDROGENASE: 79 u/L
  LIPASE: 9 u/L
  PHOSPHORUS: 10.53 mg/dL
  POTASSIUM: 5.6 MEQ/L
  SODIUM: 144.93 MEQ/L
  TOTAL BILIRUBIN: 0.1 mg/dL
  TOTAL PROTEIN: 5.93 G/DL
  URIC ACID: 0.53 mg/dL
[3]
  ABSOLUTE BASOPHIL: 0 CELLS/uL
  ABSOLUTE EOSINOPHIL: 0 CELLS/uL
  ABSOLUTE LYMPHOCYTE: 4141 CELLS/uL
  ABSOLUTE MONOCYTE: 8.33 CELLS/uL
  ABSOLUTE SEGMENTED NEUTROPHIL: 117.33 CELLS/uL
  BASOPHIL: 0%
  EOSINOPHIL: 0%
  ERYTHROCYTE COUNT: 4.75 x10E6/uL
  HEMATOCRIT: 30.23%
  HEMOGLOBIN: 11.9 G/DL
  LEUKOCYTE COUNT: 4.27 x10E3/uL
  LYMPHOCYTE: 97%
  MEAN CORPUSCULAR HEMOGLOBIN: 25.03 pg
  MEAN CORPUSCULAR HEMOGLOBIN CONCENTRATION: 39.37 G/DL
  MEAN CORPUSCULAR VOLUME: 63.63 fL
  MONOCYTE: 0.33%
  NEUTROPHIL: 2.67%
  NUCLEATED RED BLOOD CELLS: 0 /100WBC
  PLATELET COUNT: 955 x10E3/uL
  ALANINE AMINOTRANSFERASE: 47 u/L
  ALBUMIN: 3.97 G/DL
  ALKALINE PHOSPHATASE: 216.67 u/L
  ASPARTATE AMINOTRANSFERASE: 84.67 u/L
  BLOOD UREA NITROGEN: 11.33 mg/dL
  CARBON DIOXIDE: 28.67 mmol/L
  CHLORIDE: 100.67 MEQ/L
  CHOLESTEROL: 82 mg/dL
  CREATINE PHOSPHOKINASE: 362.67 u/L
  CREATININE: 0.1 mg/dL
  GLUCOSE: 158.67 mg/dL
  LACTATE DEHYDROGENASE: 74 u/L
  LIPASE: 8.67 u/L
  PHOSPHORUS: 10.1 mg/dL
  POTASSIUM: 5.3 MEQ/L
  SODIUM: 144.07 MEQ/L
  TOTAL BILIRUBIN: 0.1 mg/dL
  TOTAL PROTEIN: 5.87 G/DL
  URIC ACID: 0.47 mg/dL
